Measurements reported in patent US11656221B2, “Methods to identify modulators of actin-binding proteins” (Regents of the University of Minnesota, priority 2019, dated 2023).
Entries after “also recorded” stand apart in the source; their conditions may differ.

How the values were obtained:
[1] = target: T1, GFP-ABD-L253P and mCherry (non-specific FRET) in HEK293-6E cells (Homo sapiens, UniProt O15020, L253P); assay: Counter FRET assay, non-specific FRET (GFP-ABD-L253P plus mCherry); format: cell-based; conditions: swinholide A 3 μM
T1 construct: L252P β-III-spectrin (human) ABD residues 1-284; expressed in transfected cells; host or cells: HEK293-6E, pTT5 vector, transient
T1 sequence (O15020 1-284 L253P): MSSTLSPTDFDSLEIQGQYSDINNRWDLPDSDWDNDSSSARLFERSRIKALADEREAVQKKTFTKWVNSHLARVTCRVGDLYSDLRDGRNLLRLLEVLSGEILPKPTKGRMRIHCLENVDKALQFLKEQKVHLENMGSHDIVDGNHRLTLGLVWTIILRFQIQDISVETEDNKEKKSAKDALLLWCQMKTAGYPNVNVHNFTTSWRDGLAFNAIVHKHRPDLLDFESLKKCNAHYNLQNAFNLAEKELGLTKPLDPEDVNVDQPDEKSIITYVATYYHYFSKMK
Experimental: At 2×10^6 cells/mL, HEK293-6E cells were transfected with GFP-ABD (2.4 μg), Lifeact-mCherry (2.4-16.8 μg), mCherry (1.2-16.8 μg), and/or pTT5 (0.8-17.6 μg) using the 293fectin protocol (Thermo Fisher Scientific) with 20 μg total DNA. The cells were harvested 24 hours later by centrifugation at 100×g for 5 min, and then washed twice with PBS. Cell viability and concentration were determined using trypan blue assay and a Countess cell counter (Invitrogen).
Using a Multidrop Combi liquid dispenser (Thermo Fisher Scientific), 10^6 cells/mL were dispersed into 1536-well and 384-well plates as 5 or 50 μL aliquots, respectively. For control and tool compound plates, 100 nL of DMSO or potential tool compound was loaded using the Mantis (Formulatrix). […] Two to three hours after sample loading, fluorescence lifetime measurements were performed using high-throughput fluorescence plate-readers provided by Photonic Pharma LLC (MN, USA), including one detecting fluorescence lifetime and another detecting fluorescence spectra, as described previously.
To develop a biosensor that monitors the binding of mutant L253P β-III-spectrin to actin filaments in live cells, a fluorescence resonance energy transfer (FRET) approach was tested. […] To measure the non-specific component to our FRET readout, we concurrently tested expression of mCherry in place of Lifeact-mCherry. […]

[2] = target: T2, ABD-L253P (L253P β-III-spectrin ABD) binding to F-actin (Homo sapiens, UniProt O15020, L253P); assay: F-actin and ABD co-sedimentation assay; conditions: 3 μM, 1 μM ABD, 1 μM F-actin
T2 construct: His-SUMO (cleaved yes); made in house; host or cells: E. coli BL21(DE3), pE-SUMOpro; actin from rabbit psoas muscle
T2 sequence (O15020 1-284 L253P): as above
Experimental: Actin was purified from acetone powder derived from the psoas muscle of New Zealand white rabbit (Oryctolagus cuniculus). Filamentous (F)-actin was stored for up to 3 days on ice before use in binding assays. Within an hour of the binding assay, the F-actin was clarified at 100,000×g at 4° C. for 10 min prior to setting up binding assays. The L253P β-III-spectrin ABD was expressed in E. coli BL21(DE3) (Novagen). The ABD was purified and the His-SUMO tag proteolytically removed, as previously described, except size-exclusion chromatography was not performed due to the high purity of the ABD protein. Lifeact-mCherry protein was similarly prepared. A Bradford assay was performed to determine clarified F-actin and ABD protein concentrations.
F-actin and ABD binding assays were performed as previously described. In brief, binding assays used 1 μM ABD protein, 1 μM F-actin and 1-50 μM compound (as indicated) or DMSO control for a total reaction volume of 60 μL in F-buffer containing 10 mM Tris, pH 7.5, 150 mM NaCl, 0.5 mM ATP, 2 mM MgCl2, and 1 mM DTT. Following 30 min incubation at room temperature (21° C.). F-actin was pelleted using centrifugation at 100,000×g at 25° C. for 30 min. Unbound ABD in the supernatant was measured following SDS-PAGE and Coomassie blue staining in accord. In addition, control co-sedimentations assays that lacked actin were performed to test if compounds cause ABD aggregation. […] Amount of mCherry was determined by acquiring fluorescence spectrum peak intensity at ˜600 nm using a spectral unmixing plate reader (Fluorescence Innovations, Inc) equipped with a 532 nm laser (Laserglow Technologies, Ontario, Canada) for excitation, 532 nm longpass filter for emission, and PMT for emission detection. The fraction of Lifeact-mCherry bound to F-actin was determined by subtracting from one the fraction of supernatant fluorescence intensity relative to the no-actin control sample, using the following equation: […]

In the case of CO[C@H]1C[C@H](CC[C@H](C)[C@H](O)[C@H](C)[C@H]2OC(=O)/C=C/C(C)=C/C[C@H](O)C[C@@H]3C=CC[C@@H](C[C@H](OC)[C@@H](C)[C@@H](O)C[C@@H](O)[C@H](C)[C@@H]([C@@H](C)[C@@H](O)[C@@H](C)CC[C@H]4C[C@H](OC)C[C@H](C)O4)OC(=O)/C=C/C(C)=C/C[C@H](O)C[C@@H]4C=CC[C@@H](C[C@H](OC)[C@@H](C)[C@@H](O)C[C@@H](O)[C@@H]2C)O4)O3)O[C@@H](C)C1 [swinholide A], the “effect on counter (non-specific) FRET” value [1] is reported as “did not significantly alter”, the “effect on ABD-L253P binding to actin” value [2] is reported as “did reduce; also recorded: ablation” and the “effect on ABD-L253P binding to actin” value ([2]; listed as swiholide A) is reported as “reduce ABD-L253P binding to actin”.
